# Assay results: ChEMBL document CHEMBL1141500, “Thiol-based angiotensin-converting enzyme 2 inhibitors: P1' modifications for the exploration of the S1' subsite” (Bioorg Med Chem Lett, 2008)
# Assays:
# Carboxypeptidase A1 = target: T1, Carboxypeptidase A1 (Homo sapiens, UniProt P15085); assay: Inhibition of human recombinant CpA by fluorescence assay; conditions: read-out: Ki app
# T1 sequence (P15085 whole entry): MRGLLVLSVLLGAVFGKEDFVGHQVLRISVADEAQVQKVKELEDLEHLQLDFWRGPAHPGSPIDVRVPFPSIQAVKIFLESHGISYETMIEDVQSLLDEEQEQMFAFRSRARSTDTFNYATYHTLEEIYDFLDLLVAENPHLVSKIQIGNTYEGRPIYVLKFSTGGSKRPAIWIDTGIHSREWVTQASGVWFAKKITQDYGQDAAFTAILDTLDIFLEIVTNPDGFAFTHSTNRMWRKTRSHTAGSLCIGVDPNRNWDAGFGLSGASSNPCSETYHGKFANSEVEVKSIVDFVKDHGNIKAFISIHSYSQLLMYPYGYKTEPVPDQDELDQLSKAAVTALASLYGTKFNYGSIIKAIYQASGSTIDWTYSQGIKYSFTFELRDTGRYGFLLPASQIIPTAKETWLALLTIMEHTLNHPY
# [1] = target: Angiotensin-converting enzyme (Homo sapiens, UniProt P12821); assay: Inhibition of human recombinant ACE by fluorescence assay; conditions: read-out: Ki app
# [2] = target: T2, Angiotensin-converting enzyme 2 (Homo sapiens, UniProt Q9BYF1); assay: Inhibition of human recombinant ACE2 by fluorescence assay; conditions: read-out: Ki app
# Neprilysin = Neprilysin (Homo sapiens, UniProt P08473); assay: Inhibition of human recombinant NEP by fluorescence assay; conditions: read-out: Ki app
# [3] = target: T2, Angiotensin-converting enzyme 2; assay: Inhibition of ACE2
# Homo sapiens [4] = organism: Homo sapiens; assay: Selectivity for human recombinant ACE2 over human recombinant NEP
# Homo sapiens [5] = organism: Homo sapiens; assay: Selectivity for human recombinant ACE2 over human recombinant CpA
# Homo sapiens [6] = organism: Homo sapiens; assay: Selectivity for human recombinant ACE2 over human recombinant ACE
# Neprilysin, sequence (P08473 whole entry): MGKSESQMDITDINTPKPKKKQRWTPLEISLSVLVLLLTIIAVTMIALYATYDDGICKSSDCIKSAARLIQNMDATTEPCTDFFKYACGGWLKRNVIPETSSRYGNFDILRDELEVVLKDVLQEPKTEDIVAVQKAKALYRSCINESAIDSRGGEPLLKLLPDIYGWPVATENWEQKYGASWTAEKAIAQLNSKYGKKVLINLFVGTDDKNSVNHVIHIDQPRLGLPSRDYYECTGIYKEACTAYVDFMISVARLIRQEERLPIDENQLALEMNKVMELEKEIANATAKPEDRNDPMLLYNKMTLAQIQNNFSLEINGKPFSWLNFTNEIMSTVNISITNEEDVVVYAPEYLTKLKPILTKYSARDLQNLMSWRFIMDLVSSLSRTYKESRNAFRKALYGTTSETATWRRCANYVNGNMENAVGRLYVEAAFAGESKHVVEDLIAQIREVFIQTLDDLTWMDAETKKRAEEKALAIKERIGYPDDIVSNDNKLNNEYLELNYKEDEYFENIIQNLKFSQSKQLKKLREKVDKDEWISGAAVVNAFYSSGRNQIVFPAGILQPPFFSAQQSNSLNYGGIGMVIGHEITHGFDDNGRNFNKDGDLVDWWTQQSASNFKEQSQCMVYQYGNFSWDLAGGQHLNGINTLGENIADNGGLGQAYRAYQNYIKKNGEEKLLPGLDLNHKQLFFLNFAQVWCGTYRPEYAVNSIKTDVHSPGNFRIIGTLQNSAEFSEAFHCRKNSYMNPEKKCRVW
# T2 sequence (Q9BYF1 whole entry): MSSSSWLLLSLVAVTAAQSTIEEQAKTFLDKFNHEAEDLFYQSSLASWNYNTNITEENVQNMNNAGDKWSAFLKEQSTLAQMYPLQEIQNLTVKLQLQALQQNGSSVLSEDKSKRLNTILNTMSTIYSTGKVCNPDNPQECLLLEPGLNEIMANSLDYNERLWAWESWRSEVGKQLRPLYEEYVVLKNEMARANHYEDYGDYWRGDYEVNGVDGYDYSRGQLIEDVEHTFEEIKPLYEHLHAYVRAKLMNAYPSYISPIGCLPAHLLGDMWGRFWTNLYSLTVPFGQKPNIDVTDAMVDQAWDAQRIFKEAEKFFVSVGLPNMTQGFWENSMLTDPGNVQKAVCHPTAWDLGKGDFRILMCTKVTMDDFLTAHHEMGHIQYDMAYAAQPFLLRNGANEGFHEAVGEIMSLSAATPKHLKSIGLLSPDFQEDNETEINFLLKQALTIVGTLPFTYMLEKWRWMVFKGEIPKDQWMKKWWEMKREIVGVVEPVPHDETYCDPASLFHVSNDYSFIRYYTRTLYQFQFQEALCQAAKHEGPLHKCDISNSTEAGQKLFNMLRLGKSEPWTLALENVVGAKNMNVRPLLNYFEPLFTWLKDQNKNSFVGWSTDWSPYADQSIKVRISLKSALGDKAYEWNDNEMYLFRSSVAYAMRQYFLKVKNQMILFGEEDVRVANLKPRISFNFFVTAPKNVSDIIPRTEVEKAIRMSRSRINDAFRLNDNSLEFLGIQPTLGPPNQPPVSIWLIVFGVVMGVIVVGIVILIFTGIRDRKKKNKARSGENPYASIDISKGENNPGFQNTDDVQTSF
# Angiotensin-converting enzyme, sequence (P12821 whole entry): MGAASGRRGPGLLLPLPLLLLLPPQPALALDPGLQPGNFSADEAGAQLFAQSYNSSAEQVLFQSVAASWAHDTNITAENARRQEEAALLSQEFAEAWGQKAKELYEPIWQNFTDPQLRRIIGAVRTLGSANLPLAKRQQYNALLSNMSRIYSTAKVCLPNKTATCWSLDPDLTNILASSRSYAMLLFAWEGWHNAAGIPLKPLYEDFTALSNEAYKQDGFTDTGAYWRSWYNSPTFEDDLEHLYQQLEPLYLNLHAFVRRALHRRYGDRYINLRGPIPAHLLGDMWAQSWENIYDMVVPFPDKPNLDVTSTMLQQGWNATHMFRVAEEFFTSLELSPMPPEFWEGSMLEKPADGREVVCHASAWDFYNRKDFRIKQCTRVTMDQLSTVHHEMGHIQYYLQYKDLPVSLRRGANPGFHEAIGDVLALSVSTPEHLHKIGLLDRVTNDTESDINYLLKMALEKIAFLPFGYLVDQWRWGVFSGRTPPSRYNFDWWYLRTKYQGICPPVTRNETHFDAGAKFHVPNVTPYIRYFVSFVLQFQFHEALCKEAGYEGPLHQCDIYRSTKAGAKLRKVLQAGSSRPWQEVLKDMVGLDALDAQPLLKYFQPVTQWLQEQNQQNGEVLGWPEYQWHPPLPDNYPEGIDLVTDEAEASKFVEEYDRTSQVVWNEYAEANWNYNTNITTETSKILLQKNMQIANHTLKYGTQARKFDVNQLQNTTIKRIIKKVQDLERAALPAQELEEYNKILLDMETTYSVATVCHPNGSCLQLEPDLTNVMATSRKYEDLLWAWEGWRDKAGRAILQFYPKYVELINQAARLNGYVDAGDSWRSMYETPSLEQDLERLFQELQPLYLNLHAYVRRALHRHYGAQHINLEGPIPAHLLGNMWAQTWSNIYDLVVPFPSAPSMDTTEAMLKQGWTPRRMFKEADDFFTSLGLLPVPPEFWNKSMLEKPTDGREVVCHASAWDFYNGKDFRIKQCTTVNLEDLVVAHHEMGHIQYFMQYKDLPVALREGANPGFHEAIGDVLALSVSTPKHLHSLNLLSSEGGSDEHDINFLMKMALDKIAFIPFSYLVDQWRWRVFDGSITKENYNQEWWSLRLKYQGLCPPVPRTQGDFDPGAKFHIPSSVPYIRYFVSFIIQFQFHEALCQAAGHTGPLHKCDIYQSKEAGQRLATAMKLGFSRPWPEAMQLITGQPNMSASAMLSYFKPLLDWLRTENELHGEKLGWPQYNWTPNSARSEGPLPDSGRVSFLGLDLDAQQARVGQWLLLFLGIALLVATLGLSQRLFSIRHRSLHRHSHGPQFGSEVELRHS
SMILES,Ki (Carboxypeptidase A1),Ki [1],Ki [2],Ki (Neprilysin),IC50 [3],Selectivity ratio (Homo sapiens [4]),Selectivity ratio (Homo sapiens [5]),Selectivity ratio (Homo sapiens [6])
CC[C@@H](C)[C@H](S)C(=O)N[C@@H](Cc1ccccc1-c1ccccc1)C(=O)O,9900 nM,20000 nM,37 nM,190 nM,,,,
CC[C@@H](C)[C@H](S)C(=O)N[C@@H](Cc1cccc(-c2ccccc2)c1)C(=O)O,5000 nM,1000 nM,2.2 nM,19 nM,,,,
NCCNCCN1CC1,,,,,57000 nM,,,
CC[C@@H](C)[C@H](S)C(=O)NCC(=O)O,35000 nM,250 nM,90 nM,5100 nM,,,,
CC[C@@H](C)[C@H](S)C(=O)N[C@@H](Cc1ccc(OCc2ccc(C(F)(F)F)cc2)cc1)C(=O)O,4600 nM,2600 nM,35 nM,1500 nM,,,,
CC[C@@H](C)[C@H](S)C(=O)N[C@@H](Cc1cccc(OCc2ccccc2)c1)C(=O)O,5000 nM,750 nM,2.4 nM,37 nM,,15,,
CC[C@@H](C)[C@H](S)C(=O)N[C@@H](Cc1ccc2ccccc2c1)C(=O)O,7200 nM,310 nM,2.4 nM,46 nM,,,> 100,> 100
CC(=O)NCC(=O)N[C@@H](CC(=O)O)C(=O)N[C@@H](Cc1ccc(O)cc1)C(=O)N[C@@H](CO)C(=O)N[C@@H](Cc1cnc[nH]1)C(=O)N[C@H]1CSSC[C@@H](C(=O)N[C@H](C(=O)N[C@@H](Cc2ccc(O)cc2)C(=O)N2CCC[C@H]2C(=O)N[C@@H](CC(=O)O)C(=O)N2CCC[C@H]2C(=O)N[C@@H](CCC(=O)O)C(=O)NCC(=O)NCC(=O)NCC(N)=O)[C@@H](C)O)NC(=O)[C@H](CCCCN)NC(=O)[C@H](Cc2c[nH]c3ccccc23)NC(=O)[C@H](Cc2c[nH]c3ccccc23)NC(=O)[C@@H]2CCCN2C(=O)[C@H](Cc2ccc(O)cc2)NC(=O)[C@H](Cc2ccc(O)cc2)NC(=O)[C@H](CCCNC(=N)N)NC(=O)[C@H](CC(C)C)NC(=O)[C@@H]2CCCN2C(=O)[C@H](CO)NC1=O,,,,,10 nM,,,
CC[C@@H](C)[C@H](S)C(=O)N[C@@H](Cc1cccc(Oc2ccccc2)c1)C(=O)O,14000 nM,1100 nM,5.8 nM,79 nM,,,,
CC[C@@H](C)[C@H](S)C(=O)N[C@@H](Cc1cccc2ccccc12)C(=O)O,3600 nM,1800 nM,2.2 nM,12 nM,,,> 100,> 100
CC[C@@H](C)[C@H](S)C(=O)N[C@@H](Cc1ccc(OCc2ccccc2)cc1)C(=O)O,4600 nM,570 nM,2.7 nM,300 nM,,110,,
CC[C@@H](C)[C@H](S)C(=O)N[C@@H](Cc1ccc(OCc2ccc(F)cc2F)cc1)C(=O)O,1900 nM,950 nM,2 nM,75 nM,,,,
CC[C@@H](C)[C@H](S)C(=O)N[C@@H](Cc1ccc(OCc2ccc(F)c(F)c2)cc1)C(=O)O,3300 nM,1800 nM,0.85 nM,640 nM,,,> 750,> 750
CC[C@@H](C)[C@H](S)C(=O)N[C@@H](Cc1ccccc1Oc1ccccc1)C(=O)O,2300 nM,5000 nM,0.9 nM,180 nM,,200,,
CC[C@@H](C)[C@H](S)C(=O)N[C@@H](Cc1ccc(Oc2ccccc2)cc1)C(=O)O,8900 nM,250 nM,2.2 nM,10 nM,,,,> 100
CC[C@@H](C)[C@H](S)C(=O)N[C@@H](Cc1ccc(OCc2cc(C(F)(F)F)cc(C(F)(F)F)c2)cc1)C(=O)O,11000 nM,25000 nM,84 nM,11000 nM,,,,
CC[C@@H](C)[C@H](S)C(=O)N[C@@H](Cc1ccccc1)C(=O)O,530 nM,570 nM,1.5 nM,35 nM,,,,
CC[C@@H](C)[C@H](S)C(=O)N[C@@H](C)C(=O)O,11000 nM,180 nM,14 nM,950 nM,,,,
CC[C@@H](C)[C@H](S)C(=O)N[C@@H](Cc1ccc(O)cc1)C(=O)O,350 nM,410 nM,1.3 nM,75 nM,,,,
CC[C@@H](C)[C@H](S)C(=O)N[C@@H](Cc1ccccc1OCc1ccccc1)C(=O)O,1600 nM,770 nM,6 nM,120 nM,,20,,
CC[C@@H](C)[C@H](S)C(=O)N[C@@H](Cc1ccc(OCc2ccc(F)cc2)cc1)C(=O)O,16000 nM,4000 nM,2.5 nM,180 nM,,,,
